According to patent US20100130603A1, “MEDICAMENT FOR PROPHYLACTIC AND THERAPEUTIC TREATMENT OF DERMATOSIS RESULTING FROM EXCESSIVELY ADVANCED KERATINIZATION” (KYOTO UNIVERSITY, priority 2007, published 2010):

Key:
[1] = test system: Serca2 gene; assay: Serca2 mRNA induction in normal human epidermal keratinocytes (NHEK), Northern blotting; type: cell-based; conditions: for strength of Serca2 gene inducing action: comparison among inducers
Method: Normal human epidermal keratinocytes (NHEK) were cultured in a serum-free medium (KGM medium) from which only hydrocortisone was excluded. A test substance dissolved in dimethyl sulfoxide (DMSO) as a solvent was added to the medium and culture was continued, and amount of mRNA of Serca2 gene in the epidermal keratinocytes was quantified by Northern blotting after 3, 6, and 9 hours. […] RNA was extracted 0, 3, 6, 12, 18, 24, and 48 hours after the addition of WiN55,212-2 to the epidermal keratinocytes, and expression of Serca2 gene was observed by Northern blotting.
Test substances including various kinds of vanilloid agonists were examined in the same manner as that of Example 1.

[2] = test system: ATP2A protein; assay: ATP2A protein localization by immunostaining in human skin under organ culture; type: cell-based; conditions: optimum concentration, fixed after 24 hours
Method: Human skin under a state of organ culture was added with optimum concentration of dihomo-γ-linolenoyldopamine or DMSO (control), and after 24 hours later, the skin was fixed, and then localization of ATP2A protein, which is the causative protein of Darie's disease, was identified by immunostaining.

[3] = test system: ATP2A protein; assay: ATP2A protein localization by immunostaining in skins of healthy persons transplanted to nude mice; type: in vivo; conditions: healthy human skin on nude mice, optimum concentration applied every day for 5 days
Excerpt: Skins of healthy persons were transplanted to nude mice, and after one week under acceptance of graft, optimum concentrations of dihomo-γ-linolenoyldopamine, WIN55,212-2, DPTHF as a vanilloid antagonist, and DMSO (control) were each applied every day for 5 days. The skin samples where the application was made were fixed after biopsy, and localization of ATP2A protein was identified by immunostaining.

[4] = test system: skin samples of healthy persons; assay: Pathological changes by HE staining in skin samples of healthy persons under organ culture; type: cell-based; conditions: healthy human skin organ culture, optimum concentration, fixed after 24 to 48 hours
Method: Optimum concentrations of dihomo-γ-linolenoyldopamine, WIN55,212-2, DPTHF as a vanilloid antagonist, and DMSO (control) were each added to skin samples of healthy persons and kept under a state of organ culture in the same manner as in Example 3. The skin samples were fixed after 24 to 48 hours, and pathological changes were observed by HE staining.

[5] = test system: skin samples of Darie's disease patients; assay: Pathological changes by HE staining in skin of Darie's disease patients transplanted to nude mice, applied 5 days; type: in vivo, human skin transplanted to nude mice; conditions: Darie's disease patient skin on nude mice, optimum concentration applied every day for 5 days
Excerpt: Skin samples of Darie's disease patients were collected under informed consent of the patients, and transplanted to nude mice, and after one week under acceptance of graft, optimum concentrations of dihomo-γ-linolenoyldopamine, WIN55,212-2, and DMSO (control) were each applied to the skin samples every day for 5 days. The skins where the application was made were fixed after biopsy, and pathological changes were observed by HE staining.

[6] = test system: ATP2A2 mRNA; assay: ATP2A2 mRNA expression in epidermal keratinocytes of Darier's disease patients, Northern blotting; type: cell-based, human; conditions: keratinocyte cell lines of 3 Darier's disease patients, 6 hours after treatment, 10^−6 to 10^−9 mol
Method: Epidermal keratinocytes were collected from skins of pathological lesions of 3 Darier's disease patients, and cultured to establish cell lines. The cells were treated with WIN55,212-2 or a vanilloid agonist (dihomo-γ-linolenoyldopamine or eicosa-11Z,14Z-dienoyldopamine), and after 6 hours, RNAs were extracted and the expression of ATP2A2 mRNA was observed by Northern blotting. […] When the epidermal keratinocytes of the other two Darie's disease patients were used, similar results were obtained.

[7] = test system: skin samples of Darie's disease patients; assay: Pathological examination of skin of Darie's disease patients transplanted to nude mice, applied 9 days; type: in vivo, human skin transplanted to nude mice; conditions: Darie's disease patient skin on nude mice, applied for 9 days in DMSO
Method: Skin samples of Darie's disease patients with an area of 1 to 2 cm square were transplanted to nude mice, and acceptance of graft was confirmed after 7 days. Thereafter WIN55,212-2 or dihomo-γ-linolenoyldopamine was applied for 5 to 9 days using dimethyl sulfoxide (DMSO) as a solvent, and effectiveness of the drugs was determined on the basis of pathological examinations. This method is effective for successful determination of efficacy of a drug under a condition closest to the affected patient's skin. […] Where a solvent (DMSO) was applied as the control, dyskeratosis, parakeratosis, and blistering remained, the granular layer remained disappeared, and pathological pictures of Darie's disease were observed even after the transplantation. It is considered that the medicament of the present invention has sufficient effectiveness on inflammatory keratosis such as psoriasis vulgaris, as well as on Darie's disease, because potent therapeutic effect that achieves successful recover of even the formation of normal granular layer was observed when the cannabinoid agonist was applied.

[8] = test system: three-dimensionally cultured skin model of Darie's disease patients' keratinocytes; assay: Darie's disease model skin by three-dimensional culture; type: cell-based, human; conditions: added to the medium; keratinocytes with fibroblasts or interstitial components; 5 to 11 days
Method: In order to construct a model skin of Darie's disease which is readily reproducible and can be repetitively applied for assays, a […] model skin was constructed by three-dimensional culture of a combination of cultured epidermal keratinocytes and fibroblasts of Darie's disease patients, or three-dimensional culture of a combination of cultured epidermal keratinocytes Darie's disease patients and interstitial components. WIN55,212-2 or dihomo-γ-linolenoyldopamine was added to the medium of the above model skin to confirm the actions thereof. […] With the DMSO treatment as a control, individual keratinization and acantholysis remained, and pathological conditions corresponding to the pathological pictures of Darie's disease were observed.

[9] = synthetic cannabinoid agonists in DMSO, Northern blotting after 3, 6 and 9 hours
[10] = vanilloid agonists, same manner as Example 1

COc1ccc2c(c1)c(CC(=O)N1CCOCC1)c(C)n2C(=O)c1ccc(Cl)cc1 [BML-190]
induction of Serca2 gene (mRNA) [1, 9]: induction of Serca2 gene was induced

CCCCC/C=C\C/C=C\C/C=C\CCCCCCC(=O)NCCc1ccc(O)c(O)c1 [dihomo-γ-linolenoyldopamine]
strength of Serca2 gene inducing action ([1]; vanilloid agonists): potent inducing action
induction of Serca2 gene (mRNA) [1, 10]: induced the Serca2 gene
localization/expression of ATP2A protein by immunostaining [2]: excessively advanced expression in the basal layer was observed
localization/expression of ATP2A protein by immunostaining [3]: excessively advanced expression in the basal layer was observed
pathological changes by HE staining [4]: remained in a state of physiological skin not distinguishable from healthy skins
pathological changes by HE staining [5]: these pathological changes characteristic to Darie's disease disappeared
expression of ATP2A2 mRNA [6]: concentration-dependent promotion of expression of ATP2A2 was observed
pathological pictures (effectiveness by pathological examination) [7]: dyskeratosis and blistering disappeared, and the granular layer also slightly recovered, but keratinization accompanied by parakeratosis slightly remained
pathological pictures in three-dimensional model skin [8]: recovery of three-dimensional skin having quality similar to that of healthy skin was observed

CC/C=C\C/C=C\C/C=C\C/C=C\C/C=C\C/C=C\CCC(=O)NCCc1ccc(O)c(O)c1 [docosahexaenoyldopamine]
induction of Serca2 gene (mRNA) [1, 10]: induced the Serca2 gene

CCCCCCCCCC(=O)O[C@@H]1[C@@H](C)[C@@]2(O)[C@@H](C=C(CO)C[C@@]3(O)C(=O)C(C)=C[C@@H]23)[C@@H]2C(C)(C)[C@]12OC(=O)CCCCCCCCC [4-α-phorbol 12,13-didecanoate (4α-PDD), 4-α-phorbol 12,13-didecanoate]
induction of Serca2 gene (mRNA) [1, 10]: induced the Serca2 gene

CCCCC/C=C\C/C=C\C/C=C\C/C=C\CCCCCC(=O)NCCc1ccc(O)c(O)c1 [docosatetra-7Z,10Z,13Z,16Z-enoyldopamine]
induction of Serca2 gene (mRNA) [1, 10]: induced the Serca2 gene

CCCCC/C=C\C/C=C\C/C=C\CCCCC(=O)NCCc1ccc(O)c(O)c1 [γ-linolenoyldopamine]
strength of Serca2 gene inducing action ([1]; vanilloid agonists): potent inducing action
induction of Serca2 gene (mRNA) [1, 10]: induced the Serca2 gene

c1ccc(C2(c3ccccc3)CCCO2)cc1 [DPTHF, diphenyltetrahydrofuran]
inducing action of vanilloid agonists on Serca2 gene expression when the vanilloid antagonist coexisted ([1]; coexisting with vanilloid agonists (FIG. 7: dihomo-γ-linolenoyldopamine+DPTHF)): disappeared
localization/expression of ATP2A protein by immunostaining [3]: decrease of expression of ATP2A2 was observed
pathological changes by HE staining [4]: pathological images similar to those of Darie's disease such as individual keratinization and acantholysis were observed

CCCCC/C=C\C/C=C\C/C=C\C/C=C\CCCC(=O)N[C@H](C)CO [methanandamide]
induction of Serca2 gene (mRNA) [1, 9]: induction of Serca2 gene was induced

CCCCC/C=C\C/C=C\CCCCCCCCCC(=O)NCCc1ccc(O)c(O)c1 [eicosa-11Z,14Z-dienoyldopamine]
strength of Serca2 gene inducing action ([1]; vanilloid agonists): potent inducing action
induction of Serca2 gene (mRNA) [1, 10]: induced the Serca2 gene
expression of ATP2A2 mRNA [6]: concentration-dependent promotion of expression of ATP2A2 was observed

Cc1c(C(=O)c2cccc3ccccc23)c2cccc3c2n1[C@H](CN1CCOCC1)CO3 [WIN55,212-2]
induction of Serca2 gene (mRNA) [1, 9]: induction of Serca2 gene was induced
localization/expression of ATP2A protein by immunostaining [3]: excessively advanced expression in the basal layer was observed
pathological changes by HE staining [4]: remained in a state of physiological skin not distinguishable from healthy skins
pathological changes by HE staining [5]: these pathological changes characteristic to Darie's disease disappeared
expression of ATP2A2 mRNA [6]: concentration-dependent promotion of expression of ATP2A2 was observed
pathological pictures (effectiveness by pathological examination) [7]: dyskeratosis, parakeratosis, and blistering were disappeared, and normal keratinization was observed with recovered granular layer
pathological pictures in three-dimensional model skin [8]: recovery of three-dimensional skin having quality similar to that of healthy skin was observed

NCCOB(c1ccccc1)c1ccccc1 [2-aminoethoxydiphenyl borate (2-APB), 2-aminoethoxydiphenyl borate]
induction of Serca2 gene (mRNA) [1, 10]: induced the Serca2 gene

CC/C=C\C/C=C\C/C=C\C/C=C\C/C=C\CCCC(=O)NCCc1ccc(O)c(O)c1 [eicosapentaenoyldopamine]
induction of Serca2 gene (mRNA) [1, 10]: induced the Serca2 gene
